Results taken from PubChem BioAssay AID485340 (Southern Research Specialized Biocontainment Screening …, 2010).
Activity calls are given as the source filed them. No rule for the calls is given here.

Test system: M. tuberculosis growth, meropenem IC50 shift with compound
Assay: confirmation, meropenem IC50 shift (AID 485340);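 also: growth read after one week of culture plus overnight Alamar Blue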
[1] = compound alone IC50 vs Mtb, compound dose (near its own IC50) 9.38 µM
[2] = compound dose (near its own IC50) 9.38 µM
[3] = compound alone IC50 vs Mtb, compound dose (near its own IC50) 4.69 µM
[4] = compound dose (near its own IC50) 4.69 µM
[5] = compound alone IC50 vs Mtb, compound dose (near its own IC50) 1.18 µM
[6] = compound dose (near its own IC50) 1.18 µM
[7] = compound alone IC50 vs Mtb, compound dose (near its own IC50) 2.35 µM
[8] = compound dose (near its own IC50) 2.35 µM
[9] = compound alone IC50 vs Mtb, compound dose (near its own IC50) 0.15 µM
[10] = compound dose (near its own IC50) 0.15 µM

Compound	IC50 [1]	IC50 [2]	IC50 [3]	IC50 [4]	further results
N=C1C(c2nc3ccccc3[nH]2)=C(O)CN1c1ccc(F)cc1	7.73 µM	4.04 µM (inactive)	–	–	–
Cc1nn(-c2ccccc2)cc1/C=N/NC(N)=S	–	–	3.7 µM	2.68 µM (inactive)	–
Cc1cc(C)n(-c2nc3ccccc3c(=O)n2OCC(=O)N(C)C)n1	7.74 µM	4.61 µM (inactive)	–	–	–
CCOc1cc(/C=N\Nc2ccc([N+](=O)[O-])cc2)ccc1OCC(=O)Nc1ccc(C)c(C)c1	–	–	5.99 µM	4.01 µM (inactive)	–
CC1=Nc2ccccc2/C1=C\c1nc(-c2ccc(F)cc2)oc1O	–	–	3.73 µM	4.02 µM (inactive)	–
O=C(CCCCCN1C(=O)c2cccc([N+](=O)[O-])c2C1=O)Nc1ccccc1F	10.2 µM	1.08 µM (inactive)	–	–	–
N#Cc1c(-c2cccs2)cc(-c2ccccn2)nc1N	6.92 µM	0.73 µM	–	–	–
O=C(OC(C(=O)Nc1ccc(Cl)cc1C(F)(F)F)c1ccccc1)C1=COCCO1 (stereo not drawn)	–	–	–	–	IC50 [5]: 1.23 µM; IC50 [6]: 7.47 µM (inactive)
COc1cccc(/C=N/NC(=O)CSCC(=O)Nc2ccccc2)c1O	–	–	5.41 µM	3.28 µM (inactive)	–
c1ccc(-c2cc(N3CCOCC3)nc3ccccc23)cc1	–	–	–	–	IC50 [7]: 2.78 µM; IC50 [8]: 3.41 µM (inactive)
COc1ccc2c(c1)c(C(C)=O)c(C)n2-c1ccccc1	–	–	–	–	IC50 (compound alone IC50 vs Mtb, compound dose (near its own IC50) 0.3 µM): 0.336 µM; IC50 (compound dose (near its own IC50) 0.3 µM): 7.65 µM (inactive)
CCSc1nnc(NC(=O)C2Cc3ccccc3CN2C(=O)c2ccco2)s1 (stereo not drawn)	–	–	–	–	IC50 [7]: 2.69 µM; IC50 [8]: 6.22 µM (inactive)
Cc1cc(/C=N/NC(=O)CC#N)c(C)n1-c1ccc([N+](=O)[O-])cc1	10.2 µM	4.08 µM (inactive)	–	–	–
O=C(COC(=O)C1CC1)NCc1ccccc1Cl	–	–	–	–	IC50 [5]: 1.37 µM; IC50 [6]: 2.59 µM (inactive)
CO/N=C(\C(=O)N[C@@H]1C(=O)N2C(C(=O)O)=C(COC(C)=O)CS[C@H]12)c1csc(N)n1 (stereo in doubt)	10.3 µM	1.01 µM (inactive)	–	–	–
O=C(Nc1ccccc1)Nc1csc2ccccc12	–	–	–	–	IC50 [9]: 0.2 µM; IC50 [10]: 4.85 µM (inactive)
c1ccc(-n2c3ccccc3c3ccccc32)cc1	–	–	–	–	IC50 [7]: 3.27 µM; IC50 [8]: 7.17 µM (inactive)
Cc1ccccc1OCC(=O)Nc1ccccc1-c1ccccc1	–	–	6.04 µM	4.07 µM (inactive)	–
CN(C)c1ccc(/C=C/c2nc3ccccc3s2)cc1	8.97 µM	3.55 µM (inactive)	–	–	–
CSc1nc(-c2ccc(Cl)cc2)nn1S(=O)(=O)c1ccccc1	9.85 µM	4.13 µM (inactive)	–	–	–

Compound	IC50 [1]	IC50 [2]	IC50 [3]	IC50 [4]	further results
COc1cccc(NC(=S)Nc2cc(C)cc(C)n2)c1	–	–	6.41 µM	4.07 µM (inactive)	–
Cc1ccc(-c2[nH][nH]c(=O)c(=O)c2N=Nc2ccccc2)cc1	–	–	4.12 µM	4.07 µM (inactive)	–
COc1cc(C(=O)N/N=C/c2ccc(OC(=O)c3cccc(C)c3)cc2)ccc1O	–	–	4.54 µM	4.14 µM (inactive)	–
O=C(COc1ccc2ccccc2c1)Nc1nc2ccccc2[nH]1	–	–	5.83 µM	2.07 µM (inactive)	–
C/C(=N\NC(N)=S)c1ccc(-n2ccnc2)cc1	6.58 µM	3.97 µM (inactive)	–	–	–
Fc1ccc(-c2csc(NC(=S)Nc3ccccc3)n2)cc1	7.55 µM	2.74 µM (inactive)	–	–	–
N/C(=N\c1nc2ccccc2o1)NC(=O)c1ccccc1Br	–	–	–	–	IC50 [9]: 0.2 µM; IC50 [10]: 7.58 µM (inactive)
O=C(CCS(=O)(=O)c1ccc(F)cc1)Nc1nnc(-c2cccs2)o1	–	–	–	–	IC50 [7]: 2.94 µM; IC50 [8]: 5.51 µM (inactive)
CSc1nc2cc3c(cc2n1C(=O)c1ccc(C)cc1)OCCO3	–	–	5.15 µM	4.06 µM (inactive)	–
O=C(N/N=C/c1cc([N+](=O)[O-])ccc1O)C1CC1	–	–	4.14 µM	5.6 µM (inactive)	–
Cc1[nH]n(-c2ccccc2)c(=O)c1/C=N/NC(=O)c1ccoc1C	–	–	–	–	IC50 (compound alone IC50 vs Mtb, compound dose (near its own IC50) 0.59 µM): 0.655 µM; IC50 (compound dose (near its own IC50) 0.59 µM): 7.56 µM (inactive)
CC(C)(C)c1ccc(C(=O)Oc2ccc3c(c2)OCC3=O)cc1	8.64 µM	4.92 µM (inactive)	–	–	–
O=C(NN=C(Cc1ccccc1)Cc1ccccc1)c1ccccc1F	–	–	–	–	IC50 [5]: 1.64 µM; IC50 [6]: 4.28 µM (inactive)
Cn1c(/C=N/c2nc3ccccc3[nH]2)nc2ccccc21	–	–	–	–	IC50 [9]: 0.2 µM; IC50 [10]: 6.15 µM (inactive)
Cc1ccc(CC(=O)Nc2nc3ccccc3[nH]2)cc1C	–	–	6.31 µM	4.04 µM (inactive)	–
Cc1ccc2[nH]c(O)c(N=Nc3nc4ccccc4s3)c2c1	–	–	6.76 µM	5.1 µM (inactive)	–
COc1cccc(NC(=O)C2CC2)c1	–	–	6.09 µM	2.07 µM (inactive)	–
COc1ccc(Cl)cc1NC(=O)C/C(C)=N/NC(=O)CC#N	7.99 µM	2.83 µM (inactive)	–	–	–
Cc1onc(-c2c(Cl)cccc2Cl)c1/C(N)=N/OC(=O)C1CC1	–	–	–	–	IC50 [7]: 2.05 µM; IC50 [8]: 1.02 µM (inactive)
